Like-named read-outs stand apart in the source and are kept apart here.
Tests used:
[1] = in vitro dissolution of matched cholesterol gallstones from cholecystectomy patients, 30 ml polyethylene bag model gallbladder, 180 ml/min (Table II); parameters: species or system human; settings: five stones per set; for Mean Time (complete dissolution): mean stone weight 79-340 mg, 150 ml solvent
[2] = cited from earlier work
[3] = cited from earlier work; remark: listed apart in the source
[4] = perfusion of the gallbladder of an anesthetized pig, solvent level in central venous blood by gas chromatography
[5] = in vitro dissolution of fresh human cholesterol gallstones in a model gallbladder at high flow rate (Table I); settings: for Dissolution Rate / Dissolution Time: high flow rate; for Dissolution Rate: stone taken as 90% by weight cholesterol; for Dissolution Time: total dissolution, one stone of 132-175 mg per solvent; for dissolution of cholesterol gallstones compared with MTBE: in words
Protocol: Their efficacy and the techniques of the present invention may be seen from the following data. In the tests described in Table I below, fresh human faceted cholesterol gallstones (kept in distilled water) were dissolved in vitro and the times were recorded for the total dissolution, using a model gallbladder at a high flow rate achieved by a metering pump. "High flow rate" as used herein will mean rates of flow in the range which can be anticipated to result in fluid turbulence for the solvent in the region of the biliary tract surrounding the calculi (gallstones). While "high" rates will vary according to solvent type and viscosity and with individual patients, it will be expected that appropriate flow rates will be at least about 20 ml/min, preferably at least about 100 ml/min, and more preferably at least about 150 ml/min. For comparison purposes a parallel test with MTBE is also shown.

[6] = in words; cited from earlier work
[7] = in words; cited from earlier work; remark: listed apart in the source
[8] = treatment of a human patient with gallstones by solvent perfusion; assay type: in vivo
Description: Another aspect of the invention is the in vivo dissolution of gallstones using the C5 -C6 ester solvents provided herein as the solvent in a high flow rate pumping system, in particular a continuous pumping system controlled by gallbladder pressure feedback and employing a delivery system consisting of a catheter, a continuous flow pumping system, a controller and a tubing set; see aforesaid U.S. patent application No. 07/482,194, filed Feb. 20, 1990, to S. Zakko, incorporated herein by reference.
Such a pumping system, in combination with the low viscosity solvent provided herein, has the capability of emptying the gallbladder many times faster than the rate of normal gallbladder contraction, to prevent solvent from emptying into the intestine should such a gallbladder contraction occur during perfusion. […]
Further, should the pressure remain above (as may occur with the beginning of a gallbladder contraction) or below the upper and lower pressure limits in excess of empirically determined delays, or above or below the upper and lower pressure alarms, for the associated delays, the controller causes the system to enter into an alarm mode in which both pumps operate in the aspiration direction at maximum flow rate to remove the low viscosity solvent.

Compound | Overall Rate (dissolution) [1] [mg/min] | Mean Time (complete dissolution) [1] [min] | Boiling Point ([2]; Table I) [°C] | Dissolution Rate [5] [mg/min] | Dissolution Time [5] [min] | dissolution of cholesterol gallstones compared with MTBE [5] | also measured
COC(C)(C)C [methyl t-butyl ether] | 7.69 | 19 | 55 | 20 | 8 | – | Boiling Point [2]: 55 °C; side effects in patients ([3]; believed caused by increased blood levels of MTBE): nausea and vomiting; systemic toxicity, pain and intestinal damage on escape into the small intestine ([3]; escape from gallbladder into small intestine): signs of systemic toxicity (sedation), pain and by endoscopy, damage to the epithelium of the small intestine; effect of entry into the blood stream ([3]; in vivo): hemolysis; renal failure ([3]; reversible): one; blood level of solvent during perfusion ([4]; 10 ml, 2 h gallbladder perfusion, central vein): 0.01-0.1 μl/ml; concentration ([4]; read-out: blood level of solvent during perfusion, 10 ml, 2 h gallbladder perfusion, central vein): 84 to 840 µM; blood level of solvent after perfusion ([4]; thirty and sixty minutes following perfusion): declined after perfusion
CCOC(=O)C(C)C [ethyl isobutyrate] | 4.55 | 33 | 112 | 8 | 15 | rate generally comparable to that of MTBE | –
CCCCCCCC(=O)OCC(O)CO (stereo not shown) [Monooctanoin, monooctanoin] | – | – | – | – | – | – | gallstone dissolution speed [6]: dissolves gallstones very slowly; viscosity [7]: relatively high viscosity
CC(=O)OC(C)C [isopropyl acetate] | 5.48 | 26 | 89 | 9 | 14 | rate generally comparable to that of MTBE | –
CCOC(=O)CC [ethyl propionate] | 12.22 | 14 | 99 | 13 | 10 | rate generally comparable to that of MTBE | blood level of solvent throughout the procedure ([4]; before, 1 h and 2 h of perfusion, 30 and 60 min after): below the level of detectability; cholesterol concentration in the solvent during the procedure, versus previous procedures using MTBE ([8]; human patient): higher than concentrations observed during previous procedures conducted using MTBE; treatment of a human patient to eliminate cholesterol gallstones ([8]; one human patient): successful treatment
CCCOC(C)=O [n-propyl acetate] | 4.45 | 35 | 102 | 14 | 10 | rate generally comparable to that of MTBE | –
CCOCC [diethyl ether, reference compound] | – | – | – | – | – | – | Boiling point relative to body temperature ([2]; in words): below body temperature
